Measurements: patent US12171732B2, “Compositions and use of N-chlorotaurine for treatment and prevention of respiratory infections” (priority 2021, dated 2024)
Read-outs that look alike come from different tables or passages of the source.

Key:
[1] = test system: Influenza A/Singapore/Hongkong/2339/2000 (H1N1); type: cell-based, Influenza A virus
[2] = in vivo; cited from earlier work
[3] = cited from earlier work
[4] = test system: SARS-CoV-2, clinical isolate; assay: Virus inactivation assay with immunostaining readout (Vero/TMPRSS2/ACE2 cells); type: cell-based; conditions: 1% NCT, 37° C.
Experimental: (§1) FIG. 1C presents inactivation of SARS-Cov-2 (SARS-CoV-2, clinical isolate) by NCT. Virus suspension (SARS-CoV-2, clinical isolate) was incubated with 1% NCT or PBS for 1 min, 5 min, 7 min, 10 min, 20 min, and 30 min at 37° C. After inactivation of NCT and serial dilution, aliquots were added to Vero/TMPRSS2/ACE2 cells for 1 h in 96-well plates. Cells were washed, incubated for further 9 h, and fixed for Immunostaining (c) or RT-qPCR (d). In immunostaining, infected cells were visible as red spots and counted using an ImmunoSpot S6 Ultra-V reader and CTL analyser BioSpot® 5.0 software. Mean values±SD of three independent experiments.
(§2) Inactivation of SARS-CoV-2 wild type isolates from early 2020 was assessed by incubating stock virus with NCT for indicated time periods at 37° C. and then determining the remaining infectious particles using plaque assay or immunostaining as well as determining virus inactivation via RT-qPCR or TCID50. Exact incubation times of virus with NCT were ensured by adding met/his at the end of the incubation period, which inactivates NCT.

[5] = test system: SARS-CoV-2; assay: Treatment of hospitalized COVID-19 patients with NCT solution for inhalation; type: in vivo, human
Experimental: The effect of an inhalation solution of NCT-Na is tested in patients who suffer from COVID-19 (infection with SARS-CoV-2). The solution consists of 1% NCT sodium in distilled water.

[6] = test system: inoculated cell culture; assay: MTT testing of cytotoxicity of inactivated NCT; type: cell-based; conditions: 0.1% NCT plus 0.1% met/his (inactivated NCT); PBS control 100.3±5.6
Source text: The antiviral activity was concentration-dependent. […] This was valid for all tests and viruses in this study.

[7] = test system: SARS-CoV-2; type: in vivo, human
[8] = test system: SARS-CoV-2, clinical isolate; assay: Virus inactivation assay with RT-qPCR readout (SARS-CoV-2 E Gene); type: cell-based; conditions: 1% NCT, 37° C., RT-qPCR (FIG. 1D)
Experimental: as §1
FIG. 1D presents inactivation of SARS-Cov-2 by NCT. After cell lysis and RNA extraction, one-step RT-qPCR assay was performed using the iTaq™ RT-PCR (BIO-RAD) kit and previously published primers and probes specific for detection of the SARS-CoV-2 E Gene on a CFX96™ real-time system (BIO-RAD). Mean values±SD of genome copies of three independent experiments. Detection limit 2.10 log10 RNA copies/ml (dotted line).

[9] = test system: SARS-CoV-2 BavPat1; assay: Inactivation of SARS-CoV-2 by NCT, plaque titration; type: cell-based
Experimental: FIG. 1A presents inactivation of SARS-Cov-2 (BAvPat1) by NCT. Virus suspension (SARS-CoV-2 BavPat1) was incubated with 1.0% (55 mM) NCT, 0.1% (5.5 mM) NCT, 1.0% NCT with 5.0% peptone or PBS or 5.0% peptone for 5 min, 15 min, 30 min, or 60 min at 37° C., after which samples were diluted 1:1 in met/his solution for inactivation of NCT. Remaining infectious virus particles were determined using plaque titration. To control for inactivation of NCT by met/his, virus was added after dilution of 1.0% NCT with or without peptone in met/his. Mean values±SD of three to eight independent experiments in duplicates. The dotted line indicates the detection limit (0.84 log10). Data were statistically analyzed using a two-way ANOVA including a Dunnett's multiple comparison test to PBS controls. *p<0.05, **p<0.01, ***p<0.001, ****p<0.0001.
as §2, with “Exact incubation times of virus with NCT were ensured by adding met/his at the end of the incubation period, which inactivates NCT.” left out
With plaque assay readout, a significant reduction in infectious particles was detected after 15 min of incubation, when incubating SARS-CoV-2 with NCT in a buffered aqueous solution (FIG. 1A). […]

[10] = after the end of an inhalation of 1.0% NCT, cited from earlier work
[11] = molecular target: SARS-CoV-2 3C-like proteinase (Severe acute respiratory syndrome coronavirus 2, UniProt P0DTD1); assay: Structural changes of 3C-like proteinase by NCT, mass spectrometry; type: biochemical; conditions: 1% NCT, 30 min, 37° C.
Source text: FIG. 5 presents Chlorination of tyrosines and histidines and oxidation of methionines and cysteines of SARS-CoV-2 3C-like proteinase by NCT.
Seven methionines and four cysteines were oxidized.

[12] = test system: Influenza A/California/Swine Origin Virus/2009 (H1N1pdm); type: cell-based; conditions: 1.0% NCT
[13] = test system: SARS-CoV-2 hCoV-19/Australia/VIC01/2020; assay: Inactivation of SARS-CoV-2 by NCT, plaque titration; type: cell-based; conditions: 1.0% NCT in the presence of Vero cells, 37° C. (FIG. 1B)
Experimental: FIG. 1B presents inactivation of SARS-Cov-2 (hCoV-19/Australia/VIC01/2020) by NCT. Virus suspension (SARS-CoV-2 h CoV-19/Australia/VIC01/2020) was incubated with NCT or PBS or isopropanol (positive control) for 5 min, 10 min, 20 min, and 60 min at 37° C. and then diluted 1:1 in met/his for inactivation of NCT, followed by plaque titration. Mean values±SD of three independent experiments. Detection limit 3.11 log10 (dotted line).
as §2
With plaque assay readout, a significant reduction in infectious particles was detected after 15 min of incubation, when incubating SARS-CoV-2 with NCT in a buffered aqueous solution (FIG. 1A). The mild oxidizing activity of the test antiseptic may explain why it took as long as 15 min to reduce infectious particles. In the presence of Vero cells (FIG. 1B) or particularly 5.0% peptone (FIG. 1A), however, a significant reduction of infectious virus particles occurred already after 5 min of incubation with 1.0% NCT. […]

[14] = test system: Influenza A/Panama/2007/1999 (H3N2); type: cell-based, Influenza A virus; conditions: 1.0% NCT, within 5 min, plaque assay (FIG. 2A)
[15] = test system: RSV long strain; type: cell-based, respiratory syncytial virus
[16] = test system: SARS-CoV-2; assay: Prophylaxis of contact persons with 1% NCT nose/throat spray; type: in vivo, human
Experimental: NCT may also be applied as nose/throat spray/rinse solution for prevention/prophylaxis of worsening or contagiousity to other persons. Even in case of low or no symptoms, 1% NCT aqueous solution may be used as a nose spray (two-three puffs (about 0.1 ml/puff) per nostril during forced nasal inspiration) and/or throat spray (three-four puffs (about 0.1 ml/puff) in the back of the mouth to the throat). Alternatively, 1% NCT aqueous solution may be used as a nasal rinse (10 ml to 20 ml instilled for 30 seconds up to 1 minute) and/or throat gargling solution (10 ml to 20 ml for 30 seconds up to 1 minute). This may be repeated at least two times per day or after close contact with other persons.
Spouse, person. (Day 7 of spouse's infection) dose time and symptoms: 2:10 PM—No symptoms 8:25 PM—No symptoms. (Day 8 of spouse's infection) dose time and symptoms: 2:40 PM—No symptoms 11:30 PM—No symptoms. (Day 9 of spouse's infection) dose time and symptoms: 11:10 AM—No symptoms 7:15 P. No symptoms.

## Cl.N [Ammonium chloride, ammonium chloride, reference compound]
[1]; ammonium chloride alone, up to 10 min incubation time
  antiviral effect: no antiviral effect

## Cc1ccc(S(=O)(=O)[N-]Cl)cc1.[Na+] [chloramine T]
[2]
  effects after inhalative application: asthmatic and inflammatory symptoms

## O=S(=O)(O)CCNCl [NCT, N-chlorotaurine]
[1]; 0.1% NCT plus 0.1% ammonium chloride versus 0.1% NCT (FIG. 2D)
  effect of addition of ammonium chloride (NH4Cl) on activity against influenza viruses: significantly enhanced
[1]; 1.0% NCT
  time to reduction to the detection limit: ≤ 1 min
[1]; 1.0% NCT, within 1 min, plaque assay (FIG. 2C)
  log10 reduction of virus: 6 log10
[3]; human, in vivo
  systemic distribution: not distributed systemically
[3]; inhaled NCT, humans, phase I, chlorine taste and occasional tickle in the throat
  adverse effects: Only minor and transient adverse effects
[4]; after 1 min (not significant, p=0.085)
  reduction of infected cells: 50%
[4]; after 5 min
  reduction of infected cells: 20-80%
[4]; after 7 min
  reduction of infected cells: 81-91%
[4]; after 10 min
  reduction of infected cells: 81-97%
[4]; after 20 min
  reduction of infected cells: 96-99%
[4]; after 30 min
  reduction of infected cells: > 99%
[5]; another 20 hospitalized patients, same treatment
  course of disease during treatment: no progression of the disease and lung failure was avoided
[5]; eight hospitalized patients, 3 ml 1% NCT sodium inhaled 3 times a day for 1 week to 9 days via nebulizer
  outcome on leaving the hospital: symptom-free or largely symptom-free
[6]
  MTT reduction: 94.1±8.5
[7]; Example 1 patient, Day 0, two hours after start of 1% NCT nasal spray and gargling
  PCR of nose and throat smear, positive after cycles: 30-32 cycles
[7]; Example 1 patient, Day 3, after 1% NCT therapy was stopped
  PCR of throat/nostril swab, positive after cycles: 25 cycles
[7]; Example 1 patient, Day 4 to Day 11, after 1% NCT therapy Day 0 to Day 2
  complaints: no complaints
[7]; Example 1 patient, Day 6
  PCR of nose-throat smear, positive after cycles: 27 cycles
[7]; Example 1 patient, Day 13 (max cycle number 45)
  throat and nasal smear control PCR, weakly positive after cycles: 36.5 cycles
[7]; Example 1 patient, Day 19
  throat and nasal smear control PCR: negative
[7]; Example 2 patient, Day 1 evening, two hours after dosing, 14 cycles before NCT treatment
  swab PCR ct value: 20-22 cycles
[7]; Example 2 patient, after 10 days quarantine
  swab result: swab negative
[7]; Example 2 patient, evening of day 4, 1% NCT nose spray and gargling 3× daily
  swab PCR ct value: 31-34 cycles
[7]; Example 2 patient, morning of Day 6, 14 hours after the last dosing of NCT
  swab PCR ct value: 31-34 cycles
[7]; Example 4 patient, Day 10, 1% NCT nasal and throat spray since Day 4
  symptoms: No symptoms
[8]
  reduction of genome copies: highly significant reduction of genome copies
[9]; 1.0% NCT in the presence of 5.0% peptone, 37° C. (FIG. 1A)
  incubation time after which a significant reduction of infectious virus particles occurred: 5 min
[9]; NCT in buffered aqueous solution, 37° C., plaque assay (FIG. 1A)
  incubation time after which a significant reduction in infectious particles was detected: 15 min
[10]; after decrease to traces
  further time until active chlorine vanishes completely: 10 min
[10]
  time for concentration of active chlorine to decrease to traces: ≤ 1 min
[11]
  cysteines oxidized: four
  histidines chlorinated: two
  methionines oxidized: Seven
  tyrosines chlorinated: 3
[12]
  time to reduction to the detection limit: ≤ 1 min
[12]; within 1 min, plaque assay (FIG. 2B)
  log10 reduction of virus: 6 log10
[13]
  incubation time after which a significant reduction of infectious virus particles occurred: 5 min
[14]
  log10 reduction of virus: 2 log10
[15]; 0.1% NCT, 37° C.
  incubation time to significant titre reduction: 15 min
[15]; 1.0% NCT, after 15 minutes
  infectious RSV measurable: Almost no detectable amount of infectious RSV
[15]; 1.0% NCT, within 5 minutes, 37° C. (FIG. 3)
  log10 decrease of infectious virus titre: 4 log10
[16]; Example 2: wife and three teenagers in the same home, 1% NCT nose and throat spray 3 times daily
  infection status of family members: remained negative
[16]; Example 4: spouse, Day 7 to Day 9 of husband's infection
  symptoms of spouse: No symptoms
[16]; several cases, use of the 1% NCT nasal spray
  infection status of persons with close contact to COVID-19 positive persons: remained negative
